Assay results reported in US8236845B2, “Heterocyclyl-substituted-tetrahydro-naphthalen-amine derivatives, their preparation and use as medicaments” (Laboratorios del Dr. Esteve, S.A., priority 2007, dated 2012).
Where a name gives a salt, the structure may show the parent alone.

Target: T1, Cloned Human Serotonin Receptor, Subtype 7 (h5HT7) (Homo sapiens, UniProt P34969)
T1 construct: purchased PerkinElmer 6120512; host or cells: CHO cells (membranes coated on Basic FlashPlate, Cat. SMP200)
Test: Radioligand binding assay, [125I]LSD, cloned human 5-HT7 receptor expressed in CHO cells
Conditions: radioligand [125I]LSD 0.82 nM
Protocol: Radioligand binding assays were performed using the Cloned Human Serotonin Receptor, Subtype 7 (h5HT7), expressed in CHO cells, coated on Flashplate (Basic FlashPlate Cat.: SMP200) from PerkinElmer (Cat.: 6120512). The protocol assay was essentially the recommended protocol in the Technical Data Sheet by PerkinEmer Life and Analytical Sciences. The Mass membrane protein/well was typically 12 μg and the Receptor/well was about 9-10 fmoles. The Flashplate were let equilibrate at room temperature for one hour before the addition of the components of the assay mixture. The binding buffer was: 50 mM Tris-HCl, pH 7.4, containing 10 mM MgCl2, 0.5 mM EDTA and 0.5% BSA. The radioligand was [^125I]LSD at a final concentration of 0.82 nM. Nonspecific binding was determined with 50 μM of Clozapine. The assay volume was 25 μl. TopSeal-A were applied onto Flashplate microplates and they were incubated at room temperature for 240 minutes in darkness. The radioactivity were quantified by liquid scintillation spectrophotometry (Wallac 1450 Microbeta Trilux) with a count delay of 4 minutes prior to counting and a counting time of 30 seconds per well. Competition binding data were analyzed by using the LIGAND program (Munson and Rodbard, LIGAND: A versatile, computerized approach for characterization of ligand-binding systems. Anal. Biochem. 107: 220-239, 1980) and assays were performed in triplicate determinations for each point.

T1 sequence (P34969 whole entry): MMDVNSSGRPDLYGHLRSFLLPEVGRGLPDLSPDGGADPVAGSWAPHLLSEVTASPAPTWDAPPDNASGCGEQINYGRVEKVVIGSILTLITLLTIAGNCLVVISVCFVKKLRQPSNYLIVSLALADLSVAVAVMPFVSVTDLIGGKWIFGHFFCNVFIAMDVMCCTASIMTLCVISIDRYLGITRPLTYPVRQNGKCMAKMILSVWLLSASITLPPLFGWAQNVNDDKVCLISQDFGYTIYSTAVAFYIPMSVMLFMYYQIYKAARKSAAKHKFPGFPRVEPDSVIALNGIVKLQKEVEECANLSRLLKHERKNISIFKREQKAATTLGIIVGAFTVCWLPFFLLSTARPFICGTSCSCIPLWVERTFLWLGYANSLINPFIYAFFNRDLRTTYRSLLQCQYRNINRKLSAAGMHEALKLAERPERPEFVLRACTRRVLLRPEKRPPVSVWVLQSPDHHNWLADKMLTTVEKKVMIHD

| Structure (SMILES) | Ki | IC50 |
| --- | --- | --- |
| CCCN(C(C)C)[C@H]1CCc2c(cccc2-c2c(C)nn(C)c2C)C1 [AC, (2S)-Isopropyl-propyl-[5-(1,3,5-trimethyl-1H-pyrazol-4-yl)-1,2,3,4-tetrahydro-naphthalen-2-yl]-amine] | 227 ± 11.3 nM |  |
| COc1ccccc1-c1cccc2c1CCC(N(C)C)C2 (centres unmarked) [AF, [5-(2-Methoxy-phenyl)-1,2,3,4-tetrahydro-naphthalen-2-yl]-dimethyl-amine] | 25.8 ± 4.6 nM |  |
| COc1cccc(Cl)c1-c1cccc2c1CCC(N(C)C)C2 (centres unmarked) [AH, [5-(2-Chloro-6-methoxy-phenyl)-1,2,3,4-tetrahydro-naphthalen-2-yl]-dimethyl-amine] | 11.6 ± 3 nM |  |
| COc1ncccc1-c1cccc2c1CCC(N(C)C)C2 (centres unmarked) [AI, [5-(2-Methoxy-pyridin-3-yl)-1,2,3,4-tetrahydro-naphthalen-2-yl]-dimethyl-amine] | 61.6 ± 5.8 nM |  |
| Cc1nn(C)c(C)c1-c1cccc2c1CC[C@H](N(C)C(C)C)C2 [Example AB, (2S)-Isopropyl-methyl-[5-(1,3,5-trimethyl-1H-pyrazol-4-yl)-1,2,3,4-tetrahydro-naphthalen-2-yl]-amine] | 644 ± 63.5 nM |  |
| Cc1nn(C)c(C)c1-c1cccc2c1CC[C@@H](N(C)C)C2 [Example J, (2R)-Dimethyl-[5-(1,3,5-trimethyl-1H-pyrazol-4-yl)-1,2,3,4-tetrahydro-naphthalen-2-yl]-amine dihydrochloride] |  | 178 nM |
| Cc1n[nH]c(C)c1-c1cccc2c1CC[C@H](N(C)C)C2 [Example L, (2S)-[5-(3,5-Dimethyl-1H-pyrazol-4-yl)-1,2,3,4-tetrahydro-naphthalen-2-yl]-dimethyl-amine dihydrochloride] |  | 18.4 ± 2.5 nM |
| CCN(CC)C1CCc2c(cccc2-c2c(C)nn(C)c2C)C1 (centres unmarked) [Example S, Diethyl-[5-(1,3,5-trimethyl-1H-pyrazol-4-yl)-1,2,3,4-tetrahydro-naphthalen-2-yl]-amine] | 130 nM |  |
| Cc1nn(C)c(C)c1-c1cccc2c1CCC(N1CCCC1)C2 (centres unmarked) [O, 1,3,5-Trimethyl-4-(6-pyrrolidin-1-yl-5,6,7,8-tetrahydro-naphthalen-1-yl)-1H-pyrazole] | 96.3 ± 2 nM |  |
| CCCN(C)C1CCc2c(cccc2-c2c(C)nn(C)c2C)C1 (centres unmarked) [R, Methyl-propyl-[5-(1,3,5-trimethyl-1H-pyrazol-4-yl)-1,2,3,4-tetrahydro-naphthalen-2-yl]-amine] | 9.1 ± 1.5 nM |  |
| CCN(C)C1CCc2c(cccc2-c2c(C)nn(C)c2C)C1 (centres unmarked) [T, Ethyl-methyl-[5-(1,3,5-trimethyl-1H-pyrazol-4-yl)-1,2,3,4-tetrahydro-naphthalen-2-yl]-amine] | 10.3 ± 0.4 nM |  |
